# In US9505728B2, “Triazolone compounds and uses thereof” (INCEPTION 2, INC., priority 2012, dated 2016):
# Biological target: T1, Human PPARα (Homo sapiens, UniProt Q07869)
# T1 construct: host or cells: proprietary non-human mammalian cells
# T1 sequence (Q07869 1-468): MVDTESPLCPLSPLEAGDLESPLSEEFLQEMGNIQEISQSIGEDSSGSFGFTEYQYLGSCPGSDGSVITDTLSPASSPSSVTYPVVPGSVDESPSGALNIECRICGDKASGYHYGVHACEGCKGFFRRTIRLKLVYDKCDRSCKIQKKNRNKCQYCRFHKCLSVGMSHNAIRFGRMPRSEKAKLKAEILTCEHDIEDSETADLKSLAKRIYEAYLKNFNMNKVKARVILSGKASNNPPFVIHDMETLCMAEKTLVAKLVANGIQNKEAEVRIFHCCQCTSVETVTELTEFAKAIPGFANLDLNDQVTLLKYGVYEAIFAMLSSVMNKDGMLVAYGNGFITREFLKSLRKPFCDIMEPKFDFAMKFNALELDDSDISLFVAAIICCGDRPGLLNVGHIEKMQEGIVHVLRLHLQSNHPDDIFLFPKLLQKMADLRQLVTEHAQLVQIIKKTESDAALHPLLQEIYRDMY
# Experiment: Human PPARα Reporter Assay (luciferase)
# Type: cell-based
# Conditions: human PPARα reporter cells, overnight incubation, antagonism; read-out: Luciferase IC50
# How it was run: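 Agonist or antagonist activity read as luciferase light from engineered reporter cells carrying human PPARα and a responsive reporter gene. Cells got compound immediately on dispensing, incubated overnight, then treatment media swapped for luciferase detection reagent.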
row,IC50,Structure (SMILES)
1,985 nM,"CCn1c(CCCc2ccc(-c3cccc(CS(=O)(=O)NCc4ccccc4)c3)cc2)nn(Cc2ccc(C(C)(C)C)cc2)c1=O [Example 105, N-Benzyl-1-(4′-(3-(1-(4-(tert-butyl)benzyl)-4-ethyl-5-oxo-4,5-dihydro-1H-1,2,4-triazol-3-yl)propyl)-[1,1′-biphenyl]-3-yl)methanesulfonamide]"
2,26 nM,"COc1ccc(-c2ccc(CCCc3nn(Cc4ccc(C(C)(C)C)cc4)c(=O)n3C)cc2)cc1CC(=O)O [Example 106, 2-(4′-(3-(1-(4-(tert-Butyl)benzyl)-4-methyl-5-oxo-4,5-dihydro-1H-1,2,4-triazol-3-yl)propyl)-4-methoxy-[1,1′-biphenyl]-3-yl)acetic acid]"
3,683 nM,"CCn1c(CCCc2ccc(-c3cccc(NS(=O)(=O)N(C)C)c3)cc2)nn(Cc2ccc(C(C)(C)C)cc2)c1=O [Example 107, 3-{3-[4-(3-{[(Dimethylamino)sulfonyl]amino}phenyl)phenyl]propyl}-1-{[4-(tert-butyl)phenyl]methyl}-4-ethyl-1,2,4-triazolin-5-one]"
4,165 nM,"CCn1c(CCCc2ccc(-c3ncc(NS(=O)(=O)c4ccccc4)cn3)cc2)nn(Cc2ccc(C(C)(C)C)cc2)c1=O [Example 108, N-(2-(4-(3-(1-(4-(tert-Butyl)benzyl)-4-ethyl-5-oxo-4,5-dihydro-1H-1,2,4-triazol-3-yl)propyl)phenyl)pyrimidin-5-yl)benzenesulfonamide]"
5,590 nM,"CCn1c(CCCc2ccc(-c3cncc(N)c3)cc2)nn(Cc2ccc(C(C)(C)C)cc2)c1=O [Example 109, 3-(3-(4-(5-Aminopyridin-3-yl)phenyl)propyl)-1-(4-(tert-butyl)benzyl)-4-ethyl-1H-1,2,4-triazol-5(4H)-one]"
6,534 nM,"CCn1c(CCCc2ccc(-c3ccc(OC)c(N(C)S(=O)(=O)c4ccccc4)n3)cc2)nn(Cc2ccc(C(C)(C)C)cc2)c1=O [Example 110, 1-{[4-(tert-Butyl)phenyl]methyl}-4-ethyl-3-[3-(4-{5-methoxy-6-[N-methyl(phenylsulfonyl)amino](2-pyridyl)}phenyl)propyl]-1,2,4-triazolin-5-one]"
7,641 nM,"CCn1c(CCCc2ccc(-c3cc(OC)c(N)cn3)cc2)nn(Cc2ccc(C(C)(C)C)cc2)c1=O [Example 111, 3-{3-[4-(5-Amino-4-methoxy(2-pyridyl))phenyl]propyl}-1-{[4-(tert-butyl)phenyl]methyl}-4-ethyl-1,2,4-triazolin-5-one]"
8,816 nM,"CCn1c(CCCc2ccc(-c3cc(OC)c(NS(=O)(=O)c4ccccc4)cn3)cc2)nn(Cc2ccc(C(C)(C)C)cc2)c1=O [Example 112, 1-{[4-(tert-Butyl)phenyl]methyl}-4-ethyl-3-[3-(4-{4-methoxy-5-[(phenylsulfonyl)amino](2-pyridyl)}phenyl)propyl]-1,2,4-triazolin-5-one]"
9,8 nM,"CCn1c(CCCc2ccc(-c3ccc(OC)c(NS(=O)(=O)c4ccc(Cl)nc4)n3)cc2)nn(Cc2ccc(C(C)(C)C)cc2)c1=O [Example 113, 1-{[4-(tert-Butyl)phenyl]methyl}-3-{3-[4-(6-{[(6-chloro(3-pyridyl))sulfonyl]amino}-5-methoxy(2-pyridyl))phenyl]propyl}-4-ethyl-1,2,4-triazolin-5-one]"
10,7 nM,"CCn1c(CCCc2ccc(-c3ccc(OC)c(NS(=O)(=O)c4ccc(OC)nc4)n3)cc2)nn(Cc2ccc(C(C)(C)C)cc2)c1=O [Example 114, 1-{[4-(tert-Butyl)phenyl]methyl}-4-ethyl-3-{3-[4-(5-methoxy-6-{[(6-methoxy(3-pyridyl))sulfonyl]amino}(2-pyridyl))phenyl]propyl}-1,2,4-triazolin-5-one]"
11,116 nM,"CCn1c(CCCc2ccc(-c3cccc(CC(=O)O)c3)cc2)nn(Cc2ccc(C(C)(C)C)c(C)c2)c1=O [Example 115, 2-(4′-(3-(1-(3-Methyl-4-(tert-butyl)benzyl)-4-ethyl-5-oxo-4,5-dihydro-1H-1,2,4-triazol-3-yl)propyl)-[1,1′-biphenyl]-3-yl) acetic acid]"
12,987 nM,"CCC(=O)NS(=O)(=O)Cc1cccc(-c2ccc(CCCc3nn(Cc4ccc(C(C)(C)C)cc4)c(=O)n3CC)cc2)c1 [Example 116, N-(((4′-(3-(1-(4-(tert-Butyl)benzyl)-4-ethyl-5-oxo-4,5-dihydro-1H-1,2,4-triazol-3-yl)propyl)-[1,1′-biphenyl]-3-yl)methyl)sulfonyl)propionamide]"
13,799 nM,"CCn1c(CCCc2ccc(-c3cncc(NS(=O)(=O)c4ccccc4)c3)cc2)nn(Cc2ccc(C(C)(C)C)cc2)c1=O [Example 117, N-(5-(4-(3-(1-(4-(tert-Butyl)benzyl)-4-ethyl-5-oxo-4,5-dihydro-1H-1,2,4-triazol-3-yl)propyl)phenyl)pyridin-3-yl)benzenesulfonamide]"
14,446 nM,"CCn1c(CCCc2ccc(-c3cnc(NS(=O)(=O)c4ccccc4)cn3)cc2)nn(Cc2ccc(C(C)(C)C)cc2)c1=O [Example 118, N-(5-(4-(3-(1-(4-(tert-Butyl)benzyl)-4-ethyl-5-oxo-4,5-dihydro-1H-1,2,4-triazol-3-yl)propyl)phenyl)pyrazin-2-yl)benzenesulfonamide]"
15,941 nM,"CCn1c(CCCc2ccc(-c3cnc(NS(=O)(=O)Cc4ccccc4)cn3)cc2)nn(Cc2ccc(C(C)(C)C)cc2)c1=O [Example 119, N-(5-(4-(3-(1-(4-(tert-Butyl)benzyl)-4-ethyl-5-oxo-4,5-dihydro-1H-1,2,4-triazol-3-yl)propyl)phenyl)pyrazin-2-yl)-1-phenylmethanesulfonamide]"
16,604 nM,"CCOc1ccc(-c2ccc(CCCc3nn(Cc4ccc(C(C)(C)C)cc4)c(=O)n3CC)cc2)cc1C1(C#N)CC1 [Example 120, 1-(4′-(3-(1-(4-(tert-Butyl)benzyl)-4-ethyl-5-oxo-4,5-dihydro-1H-1,2,4-triazol-3-yl)propyl)-4-ethoxy-[1,1′-biphenyl]-3-yl)cyclopropanecarbonitrile]"
17,39 nM,"CCn1c(CCCc2ccc(-c3ccc(OC(F)F)c(C(=O)O)c3)cc2)nn(Cc2ccc(C(C)(C)C)cc2)c1=O [Example 121, 4′-(3-(1-(4-(tert-Butyl)benzyl)-4-ethyl-5-oxo-4,5-dihydro-1H-1,2,4-triazol-3-yl)propyl)-4-(difluoromethoxy)-[1,1′-biphenyl]-3-carboxylic acid]"
18,188 nM,"CCOc1ccc(-c2ccc(CCCc3nn(Cc4ccc(C(C)(C)C)cc4)c(=O)n3CC)cc2)cc1C1(C(=O)O)CC1 [Example 122, 1-(4′-(3-(1-(4-(tert-Butyl)benzyl)-4-ethyl-5-oxo-4,5-dihydro-1H-1,2,4-triazol-3-yl)propyl)-4-ethoxy-[1,1′-biphenyl]-3-yl)cyclopropanecarboxylic acid]"
19,186 nM,"CCn1c(CCCc2ccc(-c3ccc(OC)c(S(=O)(=O)Nc4ccccn4)c3)cc2)nn(Cc2ccc(C(C)(C)C)cc2)c1=O [Example 123, 4′-(3-(1-(4-(tert-Butyl)benzyl)-4-ethyl-5-oxo-4,5-dihydro-1H-1,2,4-triazol-3-yl)propyl)-4-methoxy-N-(pyridin-2-yl)-[1,1′-biphenyl]-3-sulfonamide]"
20,290 nM,"CCn1c(CCCc2ccc(-c3ccc(NS(=O)(=O)c4ccccc4)c(C)n3)cc2)nn(Cc2ccc(C(C)(C)C)cc2)c1=O [Example 124, 1-{[4-(tert-Butyl)phenyl]methyl}-4-ethyl-3-[3-(4-{6-methyl-5-[(phenylsulfonyl)amino](2-pyridyl)}phenyl)propyl]-1,2,4-triazolin-5-one]"
21,356 nM,"CCn1c(CCCc2ccc(-c3ccc(NS(=O)(=O)Cc4ccccc4)c(C)n3)cc2)nn(Cc2ccc(C(C)(C)C)cc2)c1=O [Example 125, 1-{[4-(tert-Butyl)phenyl]methyl}-4-ethyl-3-{3-[4-(6-methyl-5-{[benzylsulfonyl]amino}(2-pyridyl))phenyl]propyl}-1,2,4-triazolin-5-one]"
22,201 nM,"CCn1c(CCCc2ccc(-c3cc(C)c(NS(=O)(=O)c4ccccc4)cn3)cc2)nn(Cc2ccc(C(C)(C)C)cc2)c1=O [Example 126, 1-{[4-(tert-Butyl)phenyl]methyl}-4-ethyl-3-[3-(4-{4-methyl-5-[(phenylsulfonyl)amino](2-pyridyl)}phenyl)propyl]-1,2,4-triazolin-5-one]"
23,445 nM,"CCn1c(CCCc2ccc(-c3cc(C)c(NS(=O)(=O)Cc4ccccc4)cn3)cc2)nn(Cc2ccc(C(C)(C)C)cc2)c1=O [Example 127, 1-{[4-(tert-Butyl)phenyl]methyl}-4-ethyl-3-{3-[4-(4-methyl-5-{[benzylsulfonyl]amino}(2-pyridyl))phenyl]propyl}-1,2,4-triazolin-5-one]"
24,281 nM,"CCn1c(CCCc2ccc(-c3ccc(OC)c(C4(C(=O)O)CC4)c3)cc2)nn(Cc2ccc(C(C)(C)C)cc2)c1=O [Example 128, 1-(4′-(3-(1-(4-(tert-Butyl)benzyl)-4-ethyl-5-oxo-4,5-dihydro-1H-1,2,4-triazol-3-yl)propyl)-4-methoxy-[1,1′-biphenyl]-3-yl)cyclopropanecarboxylic acid]"
25,36 nM,"CCn1c(CCCc2ccc(-c3cncc(NS(=O)(=O)c4ccccc4)n3)cc2)nn(Cc2ccc(C(C)(C)C)cc2)c1=O [Example 129, N-(6-(4-(3-(1-(4-(tert-Butyl)benzyl)-4-ethyl-5-oxo-4,5-dihydro-1H-1,2,4-triazol-3-yl)propyl)phenyl)pyrazin-2-yl)benzenesulfonamide]"
